Measurements taken from patent publication US9045491B2, “Thienyl [3,2-D] pyrimidin-4-one compounds, preparation method, pharmaceutical compositions and use thereof” (SHANGHAI INSTITUTE OF MATERIA MEDICA, CHINESE ACADEMY OF …, priority 2011, dated 2015).

Experiments:
normal ICR mouse = assay: Oral glucose tolerance test (OGTT), acute hypoglycemic effect of single oral dose; assay type: in vivo; conditions: single dose 3 mg/kg by gavage, glucose 2.5 g/kg after 6 hours, FIGS. 7-10
Experimental: Acute hypoglycemic effect of single dose through mouth on the normal ICR mouse
Animal: ICR mouse (8-10 weeks old, sex: male, weight: 25-30 g, purchased from Shanghai SLAC Laboratory Animal Center).
1. Two days before the experiment, the food consumption was recorded and the daily food consumption of each animal was calculated;
2. The animals fasted overnight (⅓ of daily food consumption was provided, about 2 g);
3. The blood glucose was measured on the second day.
4. The medicament was administrated through gavage (1 mouse/min). After 6 hours, the blood glucose was measured. Glucose was administrated through gavage according to the body weight (2.5 g/kg). The blood glucose value was monitored at 30 min, 60 min, 90 min, and 120 min after administration.

DPP IV = molecular target: T1, DPP IV (Mus musculus, UniProt P28843); assay: DPP IV inhibitory activity in vivo: DPP IV activity in plasma of ICR mouse after single oral dose; conditions: oral 3 mg/kg, compared with Alogliptin and Vildagliptin (LAF237), FIG. 1-6
T1 construct: from tissue; host or cells: plasma of ICR mouse
T1 sequence (P28843 37-760 limits assumed): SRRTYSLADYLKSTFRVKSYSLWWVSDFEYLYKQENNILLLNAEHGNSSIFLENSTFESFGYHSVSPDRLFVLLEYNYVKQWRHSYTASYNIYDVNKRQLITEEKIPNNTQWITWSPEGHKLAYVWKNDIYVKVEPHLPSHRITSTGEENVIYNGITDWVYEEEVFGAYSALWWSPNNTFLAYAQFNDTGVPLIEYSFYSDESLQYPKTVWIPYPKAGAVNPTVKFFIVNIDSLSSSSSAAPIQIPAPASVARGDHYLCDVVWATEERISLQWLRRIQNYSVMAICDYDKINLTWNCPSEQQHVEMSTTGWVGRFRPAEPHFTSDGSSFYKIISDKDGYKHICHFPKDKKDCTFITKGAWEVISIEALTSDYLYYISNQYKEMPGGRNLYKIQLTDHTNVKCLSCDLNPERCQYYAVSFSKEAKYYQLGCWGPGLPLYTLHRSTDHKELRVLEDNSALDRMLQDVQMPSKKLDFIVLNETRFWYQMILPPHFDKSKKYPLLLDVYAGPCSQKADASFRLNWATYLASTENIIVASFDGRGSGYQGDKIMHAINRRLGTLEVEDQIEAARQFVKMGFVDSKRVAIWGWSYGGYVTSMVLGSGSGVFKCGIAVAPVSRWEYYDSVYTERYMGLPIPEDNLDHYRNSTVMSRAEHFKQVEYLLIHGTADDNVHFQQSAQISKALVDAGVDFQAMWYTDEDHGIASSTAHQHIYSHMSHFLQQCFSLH
Experimental: Animals: ICR mouse (8-10 weeks old; sex: male; 25 g-30 g of body weight, purchased from Shanghai SLAC Laboratory Animal Center).
Meanwhile the solvent group was used as blank control. The blood was taken from orbital venous plexus of the mouse before administration, and 30, 60, 2 h, 4 h, 6 h, 8 h and […] after administration, respectively and loaded into Eppendorf tube (Qizhong Industrial (Shanghai) co., Ltd.) treated by anticoagulant. The plasma was obtained by centrifugation and DPP IV activity was determined.

[1] = Safety evaluation: single dose 100 mg/kg by gavage, one week observation; assay type: in vivo, ICR mouse
Experimental: After grouping, each compound was administrated once through gavage according to the dose of 100 mg/kg at the same time.

[2] = normal ICR mouse, 100 mg/kg single dose, 7th day
[3] = normal ICR mouse, 100 mg/kg single dose, 1 d after administration
[4] = normal ICR mouse, 100 mg/kg single dose, 2 d after administration
[5] = normal ICR mouse, 100 mg/kg single dose, 3 d after administration
[6] = normal ICR mouse, 100 mg/kg single dose, 4 d after administration
[7] = normal ICR mouse, 100 mg/kg single dose, 5 d after administration
[8] = normal ICR mouse, 100 mg/kg single dose, 6 d after administration
[9] = normal ICR mouse, 100 mg/kg single dose, 7 d after administration
[10] = normal ICR mouse, 100 mg/kg single dose, before administration

SMILES: N#Cc1ccccc1Cn1c(N2CCC[C@@H](N)C2)nc2cc(C(Br)Br)sc2c1=O [DC291411]
- hypoglycemic ability in vivo, oral glucose tolerance test (normal ICR mouse): comparable to that of Alogliptin
- DPP IV activity of ICR mouse plasma after single dose (given as hypoglycemic ability in vivo) (DPP IV): comparable to that of Alogliptin (3 mg), and better than that of Vildagliptin (LAF237, 15 mg)
- body weight and viscera index versus normal control group (in words) ([1]; ICR mouse, 100 mg/kg single dose): no statistical difference
- acute toxicity ([1]; ICR mouse, 100 mg/kg single dose by gavage, one week): did not reflect obvious acute toxicity
- kidney index versus normal control group (in words) ([1]; ICR mouse, 100 mg/kg, 7th day after administration): slightly lower than that of normal control group
- Kidney index [1, 2]: 1.4 ± 0.1%
- Liver index [1, 2]: 5.0 ± 0.4%
- Spleen index [1, 2]: 0.4 ± 0.0%
- body weight [1, 3]: 30.5 ± 1.6 g
- food consumption [1, 3]: 19.3 g · day^−1 · cage^−1
- body weight [1, 4]: 31.2 ± 1.6 g
- food consumption [1, 4]: 21.3 g · day^−1 · cage^−1
- body weight [1, 5]: 31.0 ± 1.7 g
- food consumption [1, 5]: 18.8 g · day^−1 · cage^−1
- body weight [1, 6]: 31.5 ± 1.9 g
- food consumption [1, 6]: 18.3 g · day^−1 · cage^−1
- body weight [1, 7]: 31.8 ± 1.5 g
- food consumption [1, 7]: 17.7 g · day^−1 · cage^−1
- body weight [1, 8]: 31.6 ± 1.8 g
- food consumption [1, 8]: 20.5 g · day^−1 · cage^−1
- body weight [1, 9]: 32.1 ± 1.7 g
- food consumption [1, 9]: 21.9 g · day^−1 · cage^−1
- body weight [1, 10]: 30 ± 1.5 g
- food consumption [1, 10]: 20.8 g · day^−1 · cage^−1
